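A five-concentration, 48-hour dose response in 96-well plates underlies each endpoint, interpolated linearly between surrounding concentrations. The concentration for 50% growth inhibition is given as GI50. TGI is the concentration that stops growth completely.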
Key:
Assay in all cases: NCI-60 cell line screen, 48 h
[1] = system: HT29 colon
[2] = system: OVCAR-5 ovarian
[3] = system: HOP-92 NSCLC
[4] = system: SR leukemia
[5] = system: SK-OV-3 ovarian
[6] = system: KM12 colon
[7] = system: U251 CNS
[8] = system: T-47D breast
[9] = system: MDA-MB-231 breast
[10] = system: HCC-2998 colon
[11] = system: BT-549 breast
[12] = system: DU-145 prostate
[13] = system: SNB-75 CNS
[14] = system: CAKI-1 renal
[15] = system: SK-MEL-5 melanoma
[16] = system: HS 578T breast
[17] = system: HCT-15 colon
[18] = system: NCI-H23 lung
[19] = system: CCRF-CEM leukemia
[20] = system: SW-620 colon
[21] = system: HL-60(TB) leukemia
[22] = system: K-562 leukemia
[23] = system: SN12C renal
[24] = system: SK-MEL-2 melanoma
[25] = system: PC-3 prostate
[26] = system: OVCAR-4 ovarian
[27] = system: SK-MEL-28 melanoma
[28] = system: UACC-62 melanoma
[29] = system: UO-31 renal
[30] = system: IGROV1 ovarian
[31] = system: MOLT-4 leukemia
[32] = system: TK-10 renal
[33] = system: COLO 205 colon
[34] = system: HOP-62 NSCLC
[35] = system: MCF7 breast
[36] = system: MDA-MB-435
[37] = system: UACC-257 melanoma
[38] = system: SF-539 CNS
[39] = system: MALME-3M melanoma
[40] = system: NCI-H460 lung
[41] = system: SF-295 CNS
[42] = system: ACHN renal
[43] = system: NCI-H226 lung
[44] = system: RPMI-8226 leukemia
[45] = system: NCI/ADR-RES ovarian
[46] = system: M14 melanoma
[47] = system: A498 renal
[48] = system: 786-0 renal
[49] = system: SF-268 CNS
[50] = system: SNB-19 CNS
[51] = system: OVCAR-8 ovarian
[52] = system: HCT-116 colon
[53] = system: A549 NSCLC
[54] = system: OVCAR-3 ovarian
[55] = system: RXF 393 renal
[56] = system: NCI-H522 lung

Structure (SMILES): COc1ccc(-c2ccc(-c3ccc(C(=N)N)c(F)c3)s2)cc1
- GI50 [1]: 250 nM
- TGI [1]: 707 nM
- GI50 [2]: 323 nM
- TGI [2]: 1120 nM
- GI50 [3]: 867 nM
- TGI [3]: 2810 nM
- GI50 [4]: 269 nM
- TGI [4]: 787 nM
- GI50 [5]: 1570 nM
- TGI [5]: 3160 nM
- GI50 [6]: 291 nM
- TGI [6]: 861 nM
- GI50 [7]: 184 nM
- TGI [7]: 368 nM
- GI50 [8]: 185 nM
- TGI [8]: 413 nM
- GI50 [9]: 215 nM
- TGI [9]: 515 nM
- GI50 [10]: 230 nM
- TGI [10]: 478 nM
- GI50 [11]: 1570 nM
- TGI [11]: 3240 nM
- GI50 [12]: 564 nM
- TGI [12]: 1760 nM
- GI50 [13]: 1620 nM
- TGI [13]: 3310 nM
- GI50 [14]: 1540 nM
- TGI [14]: 2990 nM
- GI50 [15]: 1230 nM
- TGI [15]: 2830 nM
- GI50 [16]: 1900 nM
- TGI [16]: 4710 nM
- GI50 [17]: 211 nM
- TGI [17]: 528 nM
- GI50 [18]: 1430 nM
- TGI [18]: 3350 nM
- GI50 [19]: 286 nM
- TGI [19]: 853 nM
- GI50 [20]: 222 nM
- TGI [20]: 541 nM
- GI50 [21]: 215 nM
- TGI [21]: 462 nM
- GI50 [22]: 216 nM
- TGI [22]: 573 nM
- GI50 [23]: 622 nM
- TGI [23]: 1520 nM
- GI50 [24]: 2010 nM
- TGI [24]: 4100 nM
- GI50 [25]: 787 nM
- TGI [25]: 2290 nM
- GI50 [26]: 296 nM
- TGI [26]: 868 nM
- GI50 [27]: 1510 nM
- TGI [27]: 3190 nM
- GI50 [28]: 1800 nM
- TGI [28]: 3700 nM
- GI50 [29]: 1010 nM
- TGI [29]: 2720 nM
- GI50 [30]: 1840 nM
- TGI [30]: 4510 nM
- GI50 [31]: 495 nM
- TGI [31]: 1870 nM
- GI50 [32]: 720 nM
- TGI [32]: 1910 nM
- GI50 [33]: 184 nM
- TGI [33]: 359 nM
- GI50 [34]: 1530 nM
- TGI [34]: 3070 nM
- GI50 [35]: 212 nM
- TGI [35]: 502 nM
- GI50 [36]: 310 nM
- TGI [36]: 881 nM
- GI50 [37]: 1340 nM
- TGI [37]: 2940 nM
- GI50 [38]: 793 nM
- TGI [38]: 2630 nM
- GI50 [39]: 2290 nM
- TGI [39]: 4700 nM
- GI50 [40]: 261 nM
- TGI [40]: 690 nM
- GI50 [41]: 741 nM
- TGI [41]: 2120 nM
- GI50 [42]: 209 nM
- TGI [42]: 448 nM
- GI50 [43]: 1990 nM
- TGI [43]: 4640 nM
- GI50 [44]: 369 nM
- TGI [44]: 1800 nM
- GI50 [45]: 1090 nM
- TGI [45]: 3440 nM
- GI50 [46]: 651 nM
- TGI [46]: 1910 nM

Structure (SMILES): COc1ccc(C(=O)c2sc3nc4c(cc3c2N)CCCC4)cc1OC
- GI50 [47]: 1830 nM
- TGI [47]: 9430 nM
- GI50 [1]: 3080 nM
- TGI [1]: 15900 nM
- GI50 [2]: 14100 nM
- TGI [2]: 48500 nM
- GI50 [4]: 1590 nM
- TGI [4]: 17800 nM
- GI50 [5]: 10000 nM
- TGI [5]: 47600 nM
- GI50 [48]: 4010 nM
- TGI [48]: 17000 nM
- GI50 [6]: 2430 nM
- TGI [6]: 15500 nM
- GI50 [7]: 3030 nM
- TGI [7]: 16200 nM
- GI50 [8]: 2650 nM
- TGI [8]: 8950 nM
- GI50 [9]: 3740 nM
- TGI [9]: 8720 nM
- GI50 [10]: 7010 nM
- TGI [10]: 30400 nM
- GI50 [11]: 2680 nM
- TGI [11]: 8250 nM
- GI50 [12]: 6740 nM
- TGI [12]: 36600 nM
- GI50 [13]: 2790 nM
- TGI [13]: 9930 nM
- GI50 [14]: 2830 nM
- TGI [14]: 13000 nM
- GI50 [15]: 1870 nM
- TGI [15]: 4920 nM
- GI50 [16]: 4930 nM
- TGI [16]: 56600 nM
- GI50 [17]: 2480 nM
- TGI [17]: 21200 nM
- GI50 [18]: 2640 nM
- TGI [18]: 9940 nM
- GI50 [19]: 2950 nM
- TGI [19]: 12300 nM
- GI50 [49]: 5560 nM
- TGI [49]: 34600 nM
- GI50 [20]: 4150 nM
- TGI [20]: 26900 nM
- GI50 [21]: 2800 nM
- TGI [21]: 7620 nM
- GI50 [22]: 946 nM
- TGI [22]: 40600 nM
- GI50 [23]: 4180 nM
- TGI [23]: 48500 nM
- GI50 [25]: 2970 nM
- TGI [25]: 15000 nM
- GI50 [26]: 3480 nM
- TGI [26]: 18600 nM
- GI50 [50]: 7060 nM
- TGI [50]: > 100000 nM
- GI50 [27]: 2950 nM
- TGI [27]: 14800 nM
- GI50 [28]: 1990 nM
- TGI [28]: 6800 nM
- GI50 [51]: 2830 nM
- TGI [51]: 9880 nM
- GI50 [29]: 3040 nM
- TGI [29]: 13800 nM
- GI50 [30]: 4750 nM
- TGI [30]: 29300 nM
- GI50 [52]: 3780 nM
- TGI [52]: 50200 nM
- GI50 [31]: 2620 nM
- TGI [31]: 6490 nM
- GI50 [53]: 3280 nM
- TGI [53]: 12900 nM
- GI50 [54]: 3910 nM
- TGI [54]: 24400 nM
- GI50 [32]: 4770 nM
- TGI [32]: 26500 nM
- GI50 [33]: 3330 nM
- TGI [33]: 10100 nM
- GI50 [34]: 3870 nM
- TGI [34]: 15300 nM
- GI50 [35]: 2740 nM
- TGI [35]: 10600 nM
- GI50 [36]: 723 nM
- TGI [36]: 5760 nM
- GI50 [37]: 3810 nM
- TGI [37]: 14900 nM
- GI50 [38]: 3830 nM
- TGI [38]: 25700 nM
- GI50 [39]: 2710 nM
- TGI [39]: 14800 nM
- GI50 [40]: 3220 nM
- TGI [40]: 13200 nM
- GI50 [55]: 3410 nM
- TGI [55]: 24200 nM
- GI50 [41]: 3060 nM
- TGI [41]: 13500 nM
- GI50 [42]: 6580 nM
- TGI [42]: 31300 nM
- GI50 [43]: 3500 nM
- TGI [43]: 23000 nM
- GI50 [44]: 2310 nM
- TGI [44]: 8010 nM
- GI50 [56]: 1520 nM
- TGI [56]: 5530 nM
- GI50 [45]: 2040 nM
- TGI [45]: 6670 nM
- GI50 [46]: 2830 nM
- TGI [46]: 11500 nM
